According to patent US20220091128A1, “SYSTEM AND METHOD FOR LIGAND THERMAL ANALYSIS” (Portland State University, priority 2019, published 2022):

Tests used:
Type in all cases: binding
[1] = test system: human plasma; assay: DSC thermograms of plasma with ligand; settings: plasma, measured versus calculated composite curves (FIG. 22)
[2] = biological target: biotinylated HSA (HSAB) (Homo sapiens, UniProt P02768); assay: DSC thermograms of biotinylated HSA (HSAB) with ligands; settings: HSAB, measured versus calculated composite curves (FIG. 23)
Chain of biotinylated HSA (HSAB) (P02768 25-609): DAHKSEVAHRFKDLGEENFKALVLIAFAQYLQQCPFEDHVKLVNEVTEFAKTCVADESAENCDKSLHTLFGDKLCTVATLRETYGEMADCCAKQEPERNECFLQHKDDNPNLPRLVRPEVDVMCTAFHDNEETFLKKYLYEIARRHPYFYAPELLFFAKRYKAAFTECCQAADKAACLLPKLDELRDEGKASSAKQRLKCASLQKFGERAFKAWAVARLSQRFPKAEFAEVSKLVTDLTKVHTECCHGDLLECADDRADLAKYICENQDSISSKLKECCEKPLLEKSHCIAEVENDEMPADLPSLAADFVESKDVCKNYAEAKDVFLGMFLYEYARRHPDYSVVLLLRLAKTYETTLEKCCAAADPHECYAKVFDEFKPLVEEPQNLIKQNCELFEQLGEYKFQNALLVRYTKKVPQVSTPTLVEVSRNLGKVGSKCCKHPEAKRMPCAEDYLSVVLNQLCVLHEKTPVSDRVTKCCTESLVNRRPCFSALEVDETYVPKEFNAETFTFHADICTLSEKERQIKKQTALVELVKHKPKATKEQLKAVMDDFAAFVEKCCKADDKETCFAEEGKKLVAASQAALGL

[3] = biological target: HSA (Homo sapiens, UniProt P02768); assay: Capture of DNA from plasma with biotinylated HSA capture reagent, gel electrophoresis; set-up: purchased Sigma Aldrich (HSA); biotinylated in house (Thermo Fisher Scientific 21217); Pierce streptavidin magnetic beads (Thermo Scientific 88816); settings: salt washes
Chain of HSA (P02768 25-609): as above
Protocol: Gel electrophoresis: DNA samples collected at different steps of the capture procedure were analyzed by electrophoresis on polyacrylamide gels. All electrophoresis experiments were performed using Lonza PAGEr™ Gold Precast Gels: Gradient, 10×10 cm, 8-16%, purchased from Thermo-Fisher (BMA59519). Each supernatant fraction collected at different steps of the capture procedure were suspended in TAE running buffer and analyzed. In a typical experiment, 25 μL total volume of solution was loaded per lane (well capacity). Gels were run in TAE buffer (40 mM Tris, 20 mM Acetic Acid, 0.4 mM EDTA) at a constant current of 20 mA for approximately three hours. Gels for analysis of DNA were stained with Stains-all solution, destained in water, removed, visualized and imaged on a flat-bed scanner. Gels for analysis of hot labeled cy5′-25MER DNA were visualized using a Typhoon™ Trio+phosphorimager (GE Healthcare).
Capture strategy: In some examples, biotinylated HSA acts as an affinity reagent for ligands in plasma that bind HSA. In the capture step, streptavidin coated magnetic beads are attached to biotinylated HSA then inserted into plasma. With application of a magnetic field, ligand-bound biotinylated HSA is retrieved. Captured HSA contains bound plasma components (ligands).
Ligand recovery: In the capture process, HSA-bound components are washed off the capture reagent. […]

ssDNA: 25-base single strand DNA 25R, 5′-CGACATGACCTTGTCGCTAACATCC-3′ (DNA CGACATGACCTTGTCGCTAACATCC; DNA, backbone and methylation of C not given here)
interaction judged by effect on the thermogram [1]: interact very weakly | interaction judged by effect on the thermogram [2]: interact very weakly | binding to HSA by gel analysis [3]: detectable, but weak
